Measurements as given in patent US9295259B2, “Fungicidal substituted 1-{2-[2-halo-4-(4-halogen-phenoxy)-phenyl]-2-alkoxy-3-methyl-butyl}-1H [1,2,4]triazole compounds” (BASF SE, priority 2011, dated 2016).

Tests used:
[1] = test system: Phakopsora pachyrhizi; assay: Protective control of soy bean rust on soy beans (Phakpa P2), green house; type: in vivo, Phakopsora pachyrhizi on soy bean; conditions: 16 ppm spray, inoculated 2 days after treatment, % diseased leaf area, untreated control 80
[2] = test system: Septoria tritici; assay: Activity against leaf blotch on wheat caused by Septoria tritici (Septtr), microtest; type: cell-based; conditions: relative growth vs compound-free control (100%), 405 nm, 7 days after inoculation

Structure (SMILES) | Disease (%) at 16 ppm Phakpa P2 [1] [%] | Growth (%) at 0.000125 ppm Septtr [2] [%]
CCC(Cn1cncn1)(OC)c1ccc(Oc2ccc(Cl)cc2)cc1Cl (stereo not shown) [U.S. Pat. No. 4,940,720] | 60 | 53
COC(C)(Cn1cncn1)c1ccc(Oc2ccc(Cl)cc2)cc1Cl (stereo not shown) [EP 0126430] | 60 | 63
